{"source": "patent US20260262643A1", "about": "“HERBICIDAL BENZOXAZINES” (FMC CORPORATION, priority 2022, published 2026)", "key": {"barnyardgrass [1]": {"test_system": "barnyardgrass", "experiment": "Test C postemergence", "type": "in vivo, Echinochloa crusgalli", "settings": "10 days, 0 to 100 scale (0 no effect, 100 complete control)", "method_in_brief": "(§1)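 Greenhouse herbicide screen, 10-day duration. Test chemicals in solvent/surfactant blend were sprayed onto soil at sowing (pre) or onto 2–10 cm seedlings at one to two leaves (post); injury scored visually against controls, 0 no effect to 100 complete control.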"}, "foxtail, giant [2]": {"test_system": "foxtail, giant", "experiment": "Test C preemergence", "type": "in vivo, Setaria faberi", "from_the_text": "(§2) Seeds of plant species selected from barnyardgrass (Echinochloa crusgalli), blackgrass (Alopecurus myosuroides), corn (Zea mays), foxtail, giant (giant foxtail, Setaria faberi), green foxtail (Setaria viridis), goosegrass (Eleusine indica), kochia (Bassia scoparia), oat, wild (wild oat, Avena fatua), pigweed, palmer (palmer amaranth, palmer pigweed, Amaranthus palmeri), Pigweed, Redroot (redroot pigweed, Amaranthus retroflexus), ragweed (common ragweed, Ambrosia artemisiifolia), ryegrass, Italian ([…] ryegrass, Lolium multiflorum), soybean (Glycine max), and wheat (Triticum aestivum) were planted into a blend of loam soil and sand and treated preemergence with a directed soil spray using test chemicals formulated in a non-phytotoxic solvent mixture which included a surfactant. At the same time, plants selected from these crops and weed species and also galium (catchweed bedstraw, Galium aparine) and horseweed (Erigeron canadensis) were planted in pots containing the same blend of loam soil and sand and treated with postemergence applications of test chemicals formulated in the same manner. Plants ranged in height from 2 to 10 cm and were in the one- to two-leaf stage for the postemergence treatment. Treated plants and untreated controls were maintained in a greenhouse for 10 days, after which time all treated plants were compared to untreated controls and visually evaluated for injury. Plant response ratings, summarized in Table C, are based on a 0 to 100 scale where 0 is no effect and 100 is complete control. A dash (-) response means no test result."}, "ragweed [3]": {"test_system": "ragweed", "experiment": "Test C postemergence", "type": "in vivo, Ambrosia artemisiifolia", "settings": "10 days, 0 to 100 scale (0 no effect, 100 complete control)", "method_in_brief": "as §1"}, "blackgrass [4]": {"test_system": "blackgrass", "experiment": "Test C postemergence", "type": "in vivo, Alopecurus myosuroides", "settings": "10 days, 0 to 100 scale (0 no effect, 100 complete control)", "method_in_brief": "as §1"}, "corn [5]": {"test_system": "corn", "experiment": "Test C preemergence", "type": "in vivo, Zea mays", "method_in_brief": "as §1"}, "ragweed [6]": {"test_system": "ragweed", "experiment": "Test C preemergence", "type": "in vivo, Ambrosia artemisiifolia", "method_in_brief": "as §1"}, "barnyardgrass [7]": {"test_system": "barnyardgrass", "experiment": "Test C preemergence", "type": "in vivo, Echinochloa crusgalli", "method_in_brief": "as §1"}, "foxtail, giant [8]": {"test_system": "foxtail, giant", "experiment": "Test C postemergence", "type": "in vivo, Setaria faberi", "settings": "10 days, 0 to 100 scale (0 no effect, 100 complete control)", "from_the_text": "as §2"}, "horseweed": {"test_system": "horseweed", "experiment": "Test C postemergence", "type": "in vivo, Erigeron canadensis", "settings": "10 days, 0 to 100 scale (0 no effect, 100 complete control)", "method_in_brief": "as §1"}, "oat, wild [9]": {"test_system": "oat, wild", "experiment": "Test C postemergence", "type": "in vivo, Avena fatua", "settings": "10 days, 0 to 100 scale (0 no effect, 100 complete control)", "method_in_brief": "as §1"}, "pigweed, palmer [10]": {"test_system": "pigweed, palmer", "experiment": "Test C postemergence", "type": "in vivo, Amaranthus palmeri", "settings": "10 days, 0 to 100 scale (0 no effect, 100 complete control)", "method_in_brief": "as §1"}, "ryegrass, Italian [11]": {"test_system": "ryegrass, Italian", "experiment": "Test C postemergence", "type": "in vivo, Lolium multiflorum", "settings": "10 days, 0 to 100 scale (0 no effect, 100 complete control)", "method_in_brief": "as §1"}, "soybean [12]": {"test_system": "soybean", "experiment": "Test C preemergence", "type": "in vivo, Glycine max", "method_in_brief": "as §1"}, "ducksalad": {"test_system": "ducksalad", "experiment": "Test D flooded paddy test", "type": "in vivo, Heteranthera limosa", "settings": "250 g ai/ha, applied to paddy water, visual rating after 13 to 14 days, scale 0 to 100 (0 no effect, 100 complete control)", "method_in_brief": "(§3)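 Visual ratings from 0, meaning no effect, to 100, meaning complete control, were assigned against untreated controls 13 to 14 days after compounds were added to the floodwater of pots kept 3 cm deep, with plants at the 2-leaf stage.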"}, "blackgrass [13]": {"test_system": "blackgrass", "experiment": "Test C preemergence", "type": "in vivo, Alopecurus myosuroides", "method_in_brief": "as §1"}, "pigweed, palmer [14]": {"test_system": "pigweed, palmer", "experiment": "Test C preemergence", "type": "in vivo, Amaranthus palmeri", "method_in_brief": "as §1"}, "oat, wild [15]": {"test_system": "oat, wild", "experiment": "Test C preemergence", "type": "in vivo, Avena fatua", "method_in_brief": "as §1"}, "sedge, umbrella": {"test_system": "sedge, umbrella", "experiment": "Test D flooded paddy test", "type": "in vivo, Cyperus difformis", "settings": "250 g ai/ha, applied to paddy water, visual rating after 13 to 14 days, scale 0 to 100 (0 no effect, 100 complete control)", "method_in_brief": "as §3"}, "galium": {"test_system": "galium", "experiment": "Test C postemergence", "type": "in vivo, Galium aparine", "settings": "10 days, 0 to 100 scale (0 no effect, 100 complete control)", "method_in_brief": "as §1"}, "wheat [16]": {"test_system": "wheat", "experiment": "Test C preemergence", "type": "in vivo, Triticum aestivum", "method_in_brief": "as §1"}, "wheat [17]": {"test_system": "wheat", "experiment": "Test C postemergence", "type": "in vivo, Triticum aestivum", "settings": "10 days, 0 to 100 scale (0 no effect, 100 complete control)", "method_in_brief": "as §1"}, "barnyardgrass [18]": {"test_system": "barnyardgrass", "experiment": "Test D flooded paddy test", "type": "in vivo, Echinochloa crus-galli", "settings": "250 g ai/ha, applied to paddy water, visual rating after 13 to 14 days, scale 0 to 100 (0 no effect, 100 complete control)", "method_in_brief": "as §3"}, "rice": {"test_system": "rice", "experiment": "Test D flooded paddy test", "type": "in vivo, Oryza sativa", "settings": "250 g ai/ha, applied to paddy water, visual rating after 13 to 14 days, scale 0 to 100 (0 no effect, 100 complete control)", "method_in_brief": "as §3"}, "corn [19]": {"test_system": "corn", "experiment": "Test C postemergence", "type": "in vivo, Zea mays", "settings": "10 days, 0 to 100 scale (0 no effect, 100 complete control)", "method_in_brief": "as §1"}, "ryegrass, Italian [20]": {"test_system": "ryegrass, Italian", "experiment": "Test C preemergence", "type": "in vivo, Lolium multiflorum", "method_in_brief": "as §1"}, "kochia [21]": {"test_system": "kochia", "experiment": "Test C preemergence", "type": "in vivo, Bassia scoparia", "method_in_brief": "as §1"}, "soybean [22]": {"test_system": "soybean", "experiment": "Test C postemergence", "type": "in vivo, Glycine max", "settings": "10 days, 0 to 100 scale (0 no effect, 100 complete control)", "method_in_brief": "as §1"}, "kochia [23]": {"test_system": "kochia", "experiment": "Test C postemergence", "type": "in vivo, Bassia scoparia", "settings": "10 days, 0 to 100 scale (0 no effect, 100 complete control)", "method_in_brief": "as §1"}, "[24]": {"settings": "500 g ai/ha, preemergence, 0 to 100 scale (0 no effect, 100 complete control)"}, "[25]": {"settings": "Preemergence, 125 g ai/ha, 0 to 100 scale, 0 no effect, 100 complete control"}}}
{"smiles": "C[C@H]1CN(C(=O)c2cc(-n3cncn3)cc(C(F)(F)F)c2)c2cccc(Cl)c2O1", "note": "[Compound 335]", "values": [{"measurement": "Plant response rating, Barnyardgrass", "setting": "barnyardgrass [1]; 500 g ai/ha, postemergence", "result": 20}, {"measurement": "Plant response rating, Barnyardgrass", "setting": "barnyardgrass [1]; Postemergence, 125 g ai/ha", "result": 10}, {"measurement": "Foxtail, Giant plant response rating", "setting": "foxtail, giant [2]; [24]", "result": 90}, {"measurement": "Plant response rating, Foxtail, Giant", "setting": "foxtail, giant [2]; [25]", "result": 30}, {"measurement": "Plant response rating, Ragweed", "setting": "ragweed [3]; 500 g ai/ha, postemergence", "result": 20}, {"measurement": "Plant response rating, Ragweed", "setting": "ragweed [3]; Postemergence, 125 g ai/ha", "result": 0}, {"measurement": "Plant response rating, Blackgrass", "setting": "blackgrass [4]; 500 g ai/ha, postemergence", "result": 20}, {"measurement": "Plant response rating, Blackgrass", "setting": "blackgrass [4]; Postemergence, 125 g ai/ha", "result": 0}, {"measurement": "Corn plant response rating", "setting": "corn [5]; [24]", "result": 10}, {"measurement": "Plant response rating, Corn", "setting": "corn [5]; [25]", "result": 0}, {"measurement": "Ragweed plant response rating", "setting": "ragweed [6]; [24]", "result": 0}, {"measurement": "Plant response rating, Ragweed", "setting": "ragweed [6]; [25]", "result": 0}, {"measurement": "Barnyardgrass plant response rating", "setting": "barnyardgrass [7]; [24]", "result": 60}, {"measurement": "Plant response rating, Barnyardgrass", "setting": "barnyardgrass [7]; [25]", "result": 20}, {"measurement": "Plant response rating, Foxtail, Giant", "setting": "foxtail, giant [8]; 500 g ai/ha, postemergence", "result": 50}, {"measurement": "Plant response rating, Foxtail, Giant", "setting": "foxtail, giant [8]; Postemergence, 125 g ai/ha", "result": 20}, {"measurement": "Plant response rating, Horseweed", "setting": "horseweed; 500 g ai/ha, postemergence", "result": 0}, {"measurement": "Plant response rating, Horseweed", "setting": "horseweed; Postemergence, 125 g ai/ha", "result": 0}, {"measurement": "Plant response rating, Oat, Wild", "setting": "oat, wild [9]; 500 g ai/ha, postemergence", "result": 0}, {"measurement": "Plant response rating, Oat, Wild", "setting": "oat, wild [9]; Postemergence, 125 g ai/ha", "result": 0}, {"measurement": "Plant response rating, Pigweed, Palmer", "setting": "pigweed, palmer [10]; 500 g ai/ha, postemergence", "result": 60}, {"measurement": "Plant response rating, Pigweed, Palmer", "setting": "pigweed, palmer [10]; Postemergence, 125 g ai/ha", "result": 10}, {"measurement": "Plant response rating, Ryegrass, Italian", "setting": "ryegrass, Italian [11]; 500 g ai/ha, postemergence", "result": 30}, {"measurement": "Plant response rating, Ryegrass, Italian", "setting": "ryegrass, Italian [11]; Postemergence, 125 g ai/ha", "result": 10}, {"measurement": "Soybean plant response rating", "setting": "soybean [12]; [24]", "result": 30}, {"measurement": "Plant response rating, Soybean", "setting": "soybean [12]; [25]", "result": 0}, {"measurement": "Plant response rating, Ducksalad (Flood)", "setting": "ducksalad", "result": 35}, {"measurement": "Blackgrass plant response rating", "setting": "blackgrass [13]; [24]", "result": 80}, {"measurement": "Plant response rating, Blackgrass", "setting": "blackgrass [13]; [25]", "result": 20}, {"measurement": "Pigweed, Palmer plant response rating", "setting": "pigweed, palmer [14]; [24]", "result": 60}, {"measurement": "Plant response rating, Pigweed, Palmer", "setting": "pigweed, palmer [14]; [25]", "result": 0}, {"measurement": "Oat, Wild plant response rating", "setting": "oat, wild [15]; [24]", "result": 10}, {"measurement": "Plant response rating, Oat, Wild", "setting": "oat, wild [15]; [25]", "result": 0}, {"measurement": "Plant response rating, Sedge, Umbrella (Flood)", "setting": "sedge, umbrella", "result": 35}, {"measurement": "Plant response rating, Galium", "setting": "galium; 500 g ai/ha, postemergence", "result": 50}, {"measurement": "Plant response rating, Galium", "setting": "galium; Postemergence, 125 g ai/ha", "result": 50}, {"measurement": "Wheat plant response rating", "setting": "wheat [16]; [24]", "result": 0}, {"measurement": "Plant response rating, Wheat", "setting": "wheat [16]; [25]", "result": 0}, {"measurement": "Plant response rating, Wheat", "setting": "wheat [17]; 500 g ai/ha, postemergence", "result": 20}, {"measurement": "Plant response rating, Wheat", "setting": "wheat [17]; Postemergence, 125 g ai/ha", "result": 10}, {"measurement": "Plant response rating, Barnyardgrass (Flood)", "setting": "barnyardgrass [18]", "result": 0}, {"measurement": "Plant response rating, Rice (Flood)", "setting": "rice", "result": 0}, {"measurement": "Plant response rating, Corn", "setting": "corn [19]; 500 g ai/ha, postemergence", "result": 10}, {"measurement": "Plant response rating, Corn", "setting": "corn [19]; Postemergence, 125 g ai/ha", "result": 10}, {"measurement": "Ryegrass, Italian plant response rating", "setting": "ryegrass, Italian [20]; [24]", "result": 80}, {"measurement": "Plant response rating, Ryegrass, Italian", "setting": "ryegrass, Italian [20]; [25]", "result": 30}, {"measurement": "Kochia plant response rating", "setting": "kochia [21]; [24]", "result": 20}, {"measurement": "Plant response rating, Kochia", "setting": "kochia [21]; [25]", "result": 0}, {"measurement": "Plant response rating, Soybean", "setting": "soybean [22]; 500 g ai/ha, postemergence", "result": 100}, {"measurement": "Plant response rating, Soybean", "setting": "soybean [22]; Postemergence, 125 g ai/ha", "result": 90}, {"measurement": "Plant response rating, Kochia", "setting": "kochia [23]; 500 g ai/ha, postemergence", "result": 30}, {"measurement": "Plant response rating, Kochia", "setting": "kochia [23]; Postemergence, 125 g ai/ha", "result": 10}]}
